Assays:
[1] = tested on: streptozotocin-pretreated male Sprague-Dawley rats (experimental diabetes, type 1 diabetic condition); assay: Example 1b: blood glucose over 6 h after SGLT2 inhibitor, insulin glargine or combination; type: in vivo, rat; conditions: six hours after administration, Cpd. A 10 mg/kg oral, insulin glargine 1.5 μl/animal s.c.; for reduction of blood glucose versus control: combination at the same doses, 3-h fasted STZ rats; for statistical difference of blood glucose versus control: combination same doses
Description: All experimental protocols concerning the use of laboratory animals were reviewed by a federal Ethics Committee and approved by governmental authorities. Two weeks before the study starts, the rats were pretreated with a single dose of 60 mg/kg i.p. of streptozotocin to induced experimental diabetes, resembling a type 1 diabetic condition. During the study blood glucose was followed over 6 h in male, 3-h fasted Sprague-Dawley rats (Crl:CD) with an age of 8-9 weeks at the start of the study. A pre-dose blood sample was obtained by tail bleed for randomization and blood glucose was measured with a glucometer 30, 60, 90 min and 2, 3, 4, 5, 6 hours after administration of insulin and/or the SGLT2 inhibitor. At time point 0 min, the animals (n=4-6 per group) were injected either with insulin glargine or isotonic NaCl subcutaneously. Simultaneously all animals received oral administrations of either vehicle alone (0.5% aqueous hydroxyethylcellulose) or this vehicle containing the SGLT2 inhibitor. The data are presented as mean±S.E.M. Statistical comparison was conducted by repeated measures two-way ANOVA followed by Bonferroni post tests for group-wise comparisons. A p value <0.05 was considered to show a statistically significant difference. The term “Cpd. A” denotes the SGLT2 inhibitor compound (1.9) at a dose of 10 mg/kg. Insulin glargine was administered at a dose of 1.5 μl/animal. The term “Cpd. A+Insulin glargine” denotes the combination of the SGLT2 inhibitor compound (1.9) and insulin glargine at the same doses. P values versus control are indicated by asterisks and p values of the monotherapies versus the combination are indicated by crosses (one symbol, p<0.05; two symbols, p<0.01; three symbols, p<0.001). Six hours after administration, the SGLT2 inhibitor had reduced blood glucose by 13% versus control, and insulin glargine by 22%.

[2] = tested on: streptozotocin-pretreated male Sprague-Dawley rats (experimental diabetes, type 1 diabetic condition); assay: Example 1a: blood glucose over 4 h after SGLT2 inhibitor, insulin glargine or combination; type: in vivo, rat; conditions: four hours after administration, Cpd. A 10 mg/kg oral, insulin glargine 1.5 IU/animal s.c.; for reduction of blood glucose versus control: combination at the same doses, 3-h fasted STZ rats; for statistical difference of blood glucose versus control: combination same doses
Description: All experimental protocols concerning the use of laboratory animals were reviewed by a federal Ethics Committee and approved by governmental authorities. Two weeks before the study starts, the rats were pretreated with a single dose of 60 mg/kg i.p. of streptozotocin to induced experimental diabetes, resembling a type 1 diabetic condition. During the study blood glucose was followed over 4 h in male, 3-h fasted Sprague-Dawley rats (Crl:CD) with an age of 8-9 weeks at the start of the study. A pre-dose blood sample was obtained by tail bleed for randomization and blood glucose was measured with a glucometer 30, 60, 90 min and 2, 3, 4 hours after administration of the insulin and/or the SGLT2 inhibitor. At time point 0 min, the animals (n=4-6 per group) were injected either with insulin glargine or isotonic NaCl subcutaneously. Simultaneously all animals received oral administrations of either vehicle alone (0.5% aqueous hydroxyethylcellulose) or this vehicle containing the SGLT2 inhibitor. The data are presented as mean±S.E.M. Statistical comparison was conducted by repeated measures two-way ANOVA (analysis of variance) followed by Bonferroni post tests for group-wise comparisons. A p value <0.05 was considered to show a statistically significant difference. The term “Cpd. A” denotes the SGLT2 inhibitor compound (1.9) at a dose of 10 mg/kg. Insulin glargine was administered at a dose of 1.5 IU/animal. The term “Cpd. A+Insulin glargine” denotes the combination of the SGLT2 inhibitor compound (1.9) and insulin glargine at the same doses. P values versus control are indicated by asterisks and p values of the monotherapies versus the combination are indicated by crosses (one symbol, p<0.05; two symbols, p<0.01; three symbols, p<0.001). Four hours after administration, the SGLT2 inhibitor had reduced blood glucose by 19% versus control, and insulin glargine by 27%.

the diabetic = conditions: metformin on its own; cited from earlier work
[3] = tested on: streptozotocin-pretreated male Sprague-Dawley rats (experimental diabetes, type 1 diabetic condition); assay: Example 2a: blood glucose over 4 h, SGLT2 inhibitor plus low-dose insulin glargine versus high-dose insulin glargine; type: in vivo, rat; conditions: for reduction of blood glucose versus control: four hours after administration; for statistical difference of blood glucose versus control: four hours
Description: All experimental protocols concerning the use of laboratory animals were reviewed by a federal Ethics Committee and approved by governmental authorities. Two weeks before the study starts, the rats were pretreated with a single dose of 60 mg/kg i.p. of streptozotocin to induced experimental diabetes, resembling a type 1 diabetic condition. During the study blood glucose was followed over 4 h in male, 3-h fasted Sprague-Dawley rats (Crl:CD) with an age of 8-9 weeks at the start of the study. A pre-dose blood sample was obtained by tail bleed for randomization and blood glucose was measured with a glucometer 30, 60, 90 min and 2, 3, 4 h after administration of the insulin alone or together with the SGLT2 inhibitor. At time point 0 min, the animals (n=4-6 per group) were injected either with insulin glargine or isotonic NaCl subcutaneously. Simultaneously all animals received oral administrations of either vehicle alone (0.5% aqueous hydroxyethylcellulose) or this vehicle containing the SGLT2 inhibitor. The data are presented as mean±S.E.M. Statistical comparison was conducted by repeated measures two-way ANOVA followed by Bonferroni post tests for group-wise comparisons. A p value <0.05 was considered to show a statistically significant difference. Insulin glargine was administered at a dose of 1.5 μl/animal (low-dose) or 6 μl/animal (high-dose). The term “Cpd. A+low-dose insulin glargine” denotes the combination of the SGLT2 inhibitor at a dose of 10 mg/kg and insulin glargine at a dose of 1.5 μl/animal. P values versus control are indicated by asterisks and p values of the low-dose insulin glargine versus the combination or the high-dose insulin glargine are indicated by crosses (one symbol, p<0.05; two symbols, p<0.01; three symbols, p<0.001). […] The combination had decreased blood glucose by 53%, which was in the range of the high-dose insulin glargine with a decrease of 47%.

[4] = tested on: streptozotocin-pretreated male Sprague-Dawley rats (experimental diabetes, type 1 diabetic condition); assay: Example 2b: blood glucose over 6 h, SGLT2 inhibitor plus low-dose insulin glargine versus high-dose insulin glargine; type: in vivo, rat; conditions: for reduction of blood glucose versus control: six hours after administration; for statistical difference of blood glucose versus control: six hours
Description: All experimental protocols concerning the use of laboratory animals were reviewed by a federal Ethics Committee and approved by governmental authorities. Two weeks before the study starts, the rats were pretreated with a single dose of 60 mg/kg i.p. of streptozotocin to induced experimental diabetes, resembling a type 1 diabetic condition. During the study blood glucose was followed over 6 h in male, 3-h fasted Sprague-Dawley rats (Crl:CD) with an age of 8-9 weeks at the start of the study. A pre-dose blood sample was obtained by tail bleed for randomization and blood glucose was measured with a glucometer 30, 60, 90 min and 2, 3, 4, 5, 6 h after administration of insulin alone or together with the SGLT2 inhibitor. At time point 0 min, the animals (n=4-6 per group) were injected either with insulin glargine or isotonic NaCl subcutaneously. Simultaneously all animals received oral administrations of either vehicle alone (0.5% aqueous hydroxyethylcellulose) or this vehicle containing the SGLT2 inhibitor. The data are presented as mean±S.E.M. Statistical comparison was conducted by repeated measures two-way ANOVA followed by Bonferroni post tests for group-wise comparisons. A p value <0.05 was considered to show a statistically significant difference. Insulin glargine was administered at a dose of 1.5 μl/animal (low-dose) or 6 IU/animal (high-dose). The term “Cpd. A+low-dose insulin glargine” denotes the combination of the SGLT2 inhibitor at a dose of 10 mg/kg and insulin glargine at a dose of 1.5 μl/animal. P values versus control are indicated by asterisks and p values of the low-dose insulin glargine versus the combination or the high-dose insulin glargine are indicated by crosses (one symbol, p<0.05; two symbols, p<0.01; three symbols, p<0.001). […] The combination had decreased blood glucose by 49%, which was in the range of the high-dose insulin glargine with a decrease of 44%.

[5] = low-dose insulin glargine 1.5 μl/animal s.c., alone or with Cpd. A 10 mg/kg oral
[6] = low-dose insulin glargine 1.5 μl/animal, alone or with Cpd. A 10 mg/kg

Compound | reduction of blood glucose versus control [1] [%] | statistical difference of blood glucose versus control [1] | reduction of blood glucose versus control [2] [%] | statistical difference of blood glucose versus control [2] | average improvement in the HbA1c value (the diabetic) | reduction of blood glucose versus control ([3]; high-dose insulin glargine 6 μl/animal s.c.) [%] | reduction of blood glucose versus control [3, 5] [%] | statistical difference of blood glucose versus control ([3]; high-dose insulin glargine 6 μl/animal) | statistical difference of blood glucose versus control [3, 6] | reduction of blood glucose versus control ([4]; high-dose insulin glargine 6 IU/animal s.c.) [%] | reduction of blood glucose versus control [4, 5] [%] | statistical difference of blood glucose versus control ([4]; high-dose insulin glargine 6 IU/animal) | statistical difference of blood glucose versus control [4, 6]
OC[C@H]1O[C@@H](c2ccc(Cl)c(Cc3ccc(O[C@H]4CCOC4)cc3)c2)[C@H](O)[C@@H](O)[C@@H]1O [compound (1.9), 1-chloro-4-(β-D-glucopyranos-1-yl)-2-[4-((S)-tetrahydrofuran-3-yloxy)-benzyl]-benzene] | 13 | did not show statistically significant differences versus control | 19 | did not show statistically significant differences versus control | – | – | – | – | – | – | – | – | –
CN(C)C(=N)N=C(N)N [metformin] | – | – | – | – | 1.0-1.5% | – | – | – | – | – | – | – | –
Gly^A21, Arg^B31, Arg^B32 human insulin [insulin glargine] | 22 | did not show statistically significant differences versus control | 27 | did not show statistically significant differences versus control | – | 47 | 27 | significantly different from the control | without showing statistically significant difference | 44 | 22 | significantly different from the control | without showing statistically significant difference

Reference: US20220152159A1, “PHARMACEUTICAL COMPOSITION, METHODS FOR TREATING AND USES THEREOF” (Boehringer Ingelheim International GmbH, priority 2010, published 2022)
